From patent US11390884B2, “Optimized CRISPR/cas9 systems and methods for gene editing in stem cells” (Editas Medicine, Inc., priority 2015, dated 2022)
Like-named read-outs stand apart in the source and are kept apart here. Peptide text beside a SMILES is read from it. * marks the point of attachment. Cbz = O=C(OCc1ccccc1)*

Tests used:
HBB locus = test: Gene editing at the HBB locus in cord blood CD34+ HSCs (T7E1, DNA sequencing); type: cell-based, human; settings: CB CD34+, enhancer 18 hours before and 3 days after electroporation with D10A Cas9 RNP, HBB-8/HBB-15, Phx ssODN, UM171 35 nM, UM171/SR-1 35/40 nM, rapamycin 5 nM, OxPAPC 30 μg/mL, bafilomycin A1 1 μM, MG132 0.5 μM
From the text: Human CD34^+ HSCs cells were isolated from freshly obtained human umbilical cord blood by ficoll gradient density centrifugation followed by MACS® (antibody conjugated immunomagnetic bead sorting) with mouse anti-human CD34^+ immunomagnetic beads using the human CD34 cell enrichment kit and LS magnetic columns from Miltenyi Biotech. […] In the afternoon of day 3, 2.5 million CD34^+ cells per sample were suspended in electroporation buffer.
In vitro transcribed capped and tailed guide gRNAs HBB-8 and HBB-15 were added at a 2:1 molar ratio (total gRNA:Cas9 protein) to 12.5 μg D10A nickase ribonucleoprotein (RNP) (5 μg RNP per million cells) to each of two samples each containing 2.5 million CB CD34^+ cells. A third CB CD34^+ cell aliquot was mixed with 25 μg D10A nickase RNP and HBB gRNAs (total gRNA:D10A ratio at 2:1).
For all samples, the cells were collected from the cartridge and placed at 37° C. for 20 minutes (recovery period). For the CB CD34^+ HSCs that were contacted with 12.5 μg D10A nickase RNP, one sample was transferred to pre-warmed cytokine supplemented Stemspan-SFEM™ media and placed at 30° C. for 2 hours (cold shock samples) or placed directly into the same media at 37° C. For the cold shocked samples, the cells were transferred to the 37° C. incubator after the 2-hour incubation period at 30° C. […] Genomic DNA was extracted from the HSCs at 48 and 72 hours after electroporation and HBB locus-specific PCR reactions were performed. The purified PCR products were analyzed for insertions/deletions (indels) in T7E1 assays and by DNA sequencing of individual clones (PCR product was transformed and subcloned into TOPO-vector, individual colonies picked, and plasmid DNA containing individual PCR products were sequenced).
Gene editing at the HBB locus was then evaluated at 72 hours after electroporation of D10A nickase RNP co-delivered with 2 gRNAs (HBB-8 and HBB-15). Briefly, gDNA was isolated from electroporated CD34^+ cells at 72 hours after electroporation, and PCR amplification of a ˜607 bp fragment of the HBB locus (which captures both of the individual genomic locations that were targeted by gRNAs HBB-8 and HBB-15) was performed. After cleanup of the HBB PCR product with AMPURE beads, insertions/deletions (indels) at the targeted genomic location were evaluated by T7E1 assay and by DNA sequencing.
Human CD34^+ HSCs cells were isolated from freshly obtained human umbilical cord blood by ficoll gradient density centrifugation followed by MACS sorting with mouse anti-human CD34^+ immunomagnetic beads. […] In the afternoon of day 3, 2.2 million CD34^+ cells per sample were suspended in electroporation buffer.
In vitro transcribed capped and tailed guide gRNAs HBB-8 and HBB-15 were added at a 2:1 molar ratio (total gRNA:Cas9 protein) to 10 μg RNP per million cells.
For all samples, the cells were collected from the cartridge and placed at 37° C. for 20 minutes (recovery period).

human CB CD34^+ HSCs [1] = tested on: human CB CD34^+ HSCs
Experimental: (§1) For all samples, the cells were collected from the cartridge and placed at 37° C. for 20 minutes (recovery period). […] For the cold shocked samples, the cells were transferred to the 37° C. incubator after the 2-hour incubation period at 30° C.
(§2) For all samples, the cells were collected from the cartridge and placed at 37° C. for 20 minutes (recovery period). For the CB CD34^+ cells that were contacted with 10 μg D10A nickase RNP (per million cells), one sample was transferred to pre-warmed cytokine supplemented Stemspan-SFEM™ media and placed at 30° C. for 2 hours (cold shock recovery) or placed directly into the same media at 37° C. For the cold shocked samples, the cells were transferred to the 37° C. incubator after the 2-hour incubation period at 30° C.
(§3) CB CD34^+ cells were pre-treated with each of these stem cell viability enhancers (Table 19) for 18 hours prior to electroporation with D10A Cas9 RNP, HBB-8 and HBB-15 modified gRNAs, and 5′ and 3′ phosphorothioate-modified ssODN donor template. After electroporation, cells were replated into HSC medium containing these stem cell viability enhancers and cultured for an additional 3 days.

human CB CD34^+ HSCs [2] = test: Flow cytometry viability and stem cell phenotype of electroporated cord blood CD34+ cells
Experimental: as §1, §2, §3

[3] = tested on: human mobilized peripheral blood CD34^+ HSCs; test: Hematopoietic colony forming cell (CFC) assay in Methocult; type: cell-based; settings: wild-type Cas9 and CCR5-U43 gRNA plasmid DNA; 40 nM UM171; two weeks
From the text: […]; 345(6203):1509-1512). […] […].
To evaluate maintenance of HSC potency and differentiation potential, two weeks after plating CD34^+ HSCs in CFC assays, hematopoietic activity was quantified based on scoring the HSC progeny by enumerating the total number of hematopoietic colony forming units (CFU) and the frequencies of specific blood cell phenotypes, including: mixed myeloid/erythroid (Granulocyte-erythroid-monocyte macrophage, CFU-GEMM), myeloid (CFU-macrophage (M), granulocyte-macrophage (CFU-GM)) and erythroid (CFU-E) colonies. […].
To evaluate maintenance of HSC potency and differentiation potential, two weeks after plating CD34^+ HSCs in CFC assays, hematopoietic activity was quantified based on scoring the HSC progeny by enumerating the total number of hematopoietic colony forming units (CFU) and the frequencies of specific blood cell phenotypes, including: mixed myeloid/erythroid (Granulocyte-erythroid-monocyte macrophage, CFU-GEMM), myeloid (CFU-macrophage (M), granulocyte-macrophage (CFU-GM)) and erythroid (CFU-E) colonies. […]. […] After Nucleofection™, cells were replated into Stemspan-SFEM supplemented with SCF, TPO, FL and UM171. After overnight incubation, HSCs were replated in Stemspan-SFEM™ plus cytokines alone without UM171.
To evaluate maintenance of HSC potency and differentiation potential, two weeks after plating CD34^+ HSCs in CFC assays, hematopoietic activity was quantified based on scoring the HSC progeny by enumerating the total number of hematopoietic colony forming units (CFU) and the frequencies of specific blood cell phenotypes, including: mixed myeloid/erythroid (Granulocyte-erythroid-monocyte macrophage, CFU-GEMM), myeloid (CFU-macrophage (M), granulocyte-macrophage (CFU-GM)) and erythroid (CFU-E) colonies. CD34^+ HSCs that were Nucleofected™ CD34^+ HSCs maintained CFC potential compared to un-Nucleofected™ HSCs (Table 14).

[4] = tested on: human mobilized peripheral blood CD34^+ HSCs; settings: Nucleofection with wild type Cas9 and CCR5-U43 gRNA plasmid DNA; short-term 40 nM UM171
[5] = Homo sapiens, read-out: % Viability of CD34^+ stem cells

CO/C1=C\C(C)=C\[C@@H](C)[C@@H](O)[C@@H](C)C/C(C)=C/C=C/[C@H](OC)[C@@H]([C@@H](C)[C@@H](O)[C@H](C)[C@@]2(O)C[C@@H](O)[C@H](C)[C@@H](C(C)C)O2)OC1=O [Bafilomycin A1, reference compound]
% HDR (HBB locus): 0% | % NHEJ (HBB locus): 18% | % Total Gene Editing (HBB locus): 18% | % Viability of CD34^+ stem cells (human CB CD34^+ HSCs [1]): 23%

CC(C)C[C@@H](C=O)NC(=O)[C@H](CC(C)C)NC(=O)[C@H](CC(C)C)NC(=O)OCc1ccccc1 [MG132, benzyl (S)-4-methyl-1-((S)-4-methyl-1-((S)-4-methyl-1-oxopentan-2-ylamino)-1-oxopentan-2-ylamino)-1-oxopentan-2-ylcarbamate, reference compound] (Cbz-Leu-Leu-Leu-aldehyde)
% HDR (HBB locus): 0% | % NHEJ (HBB locus): 0% | % Total Gene Editing (HBB locus): 0% | viability at 0.5 µM (human CB CD34^+ HSCs [2]; [5]): 19%

Cn1nnc(-c2ccc3c(c2)[nH]c2nc(Cc4ccccc4)nc(N[C@H]4CC[C@H](N)CC4)c23)n1 [UM171, (1r,4r)-N1-(2-benzyl-7-(2-methyl-2H-tetrazol-5-yl)-9H-pyrimido[4,5-b]indol-4-yl)cyclohexane-1,4-diamine]
Number of colony forming units, E (erythroid) [3]: 92 colony forming units per 1500 CD34^+ HSCs plated | Number of colony forming units, G [3]: 40 colony forming units per 1500 CD34^+ HSCs plated | Number of colony forming units, GEMM [3]: 20 colony forming units per 1500 CD34^+ HSCs plated | Number of colony forming units, GM [3]: 32 colony forming units per 1500 CD34^+ HSCs plated | Number of colony forming units, M [3]: 64 colony forming units per 1500 CD34^+ HSCs plated | Number of colony forming units, Total [3]: 228 colony forming units per 1500 CD34^+ HSCs plated | % HDR (HBB locus): 0% | % NHEJ (HBB locus): 79% | % Total Gene Editing (HBB locus): 79% | Fold-change in the number of live CD34^+ HSCs (96 hours) [4]: 1.5

CO[C@H]1C[C@@H]2CC[C@@H](C)[C@@](O)(O2)C(=O)C(=O)N2CCCC[C@H]2C(=O)O[C@H]([C@H](C)C[C@@H]2CC[C@@H](O)[C@H](OC)C2)CC(=O)[C@H](C)/C=C(\C)[C@@H](O)[C@@H](OC)C(=O)[C@H](C)C[C@H](C)/C=C/C=C/C=C/1C [Rapamycin (sirolimus), Rapamycin, reference compound]
% HDR (HBB locus): 7% | % NHEJ (HBB locus): 46% | % Total Gene Editing (HBB locus): 53% | viability at 0.005 µM (human CB CD34^+ HSCs [2]; [5]): 52%

oxidized 1-palmitoyl-2-arachidonyl-sn-glycero-3-phosphorylcholine [OxPAPC, reference compound]
% HDR (HBB locus): 7% | % NHEJ (HBB locus): 71% | % Total Gene Editing (HBB locus): 78% | improvement in viability versus electroporated cells without pre-treatment (human CB CD34^+ HSCs [2]; CB CD34+, OxPAPC 30 μg/mL pre-treatment 18 hours): 20% | % Viability of CD34^+ stem cells (human CB CD34^+ HSCs [2]; CB CD34+, enhancer 18 hours before and 3 days after electroporation with D10A Cas9 RNP, HBB-8/HBB-15, Phx ssODN, UM171 35 nM, UM171/SR-1 35/40 nM, rapamycin 5 nM, OxPAPC 30 μg/mL, bafilomycin A1 1 μM, MG132 0.5 μM): 64%
